Measured values as given in article PMC11056980 (Journal of medicinal chemistry, 2024).

Tests used:
[1] = in vitro; conditions: human, microsomes, pH 7.4
[2] = system: SARS-CoV-2 strain BA.1; type: cell-based
[3] = system: SARS-CoV-2 strain XBB.1.5; type: cell-based
[4] = target: SARS-CoV-2 M^Pro (Severe acute respiratory syndrome coronavirus 2, UniProt P0DTD1); type: biochemical; conditions: 20 nM M^Pro, 30 min preincubation, 10 μM Sub3
[5] = in vitro; conditions: human

SMILES: C[C@@H](OC(C)(C)C)[C@H](NC(=O)OCc1cccc(OCCCCOc2cccc3c2C(=O)N(C2CCC(=O)NC2=O)C3=O)c1)C(=O)N[C@@H](CC1CCCCC1)C(=O)N[C@H](C=O)C[C@@H]1CCNC1=O (some centres unmarked) [MPD1]
- CLint scaled [1]: 149 ± 12.7 mL/min/kg

SMILES: C[C@@H](OC(C)(C)C)[C@H](NC(=O)OCc1cccc(OCCCCCCOc2cccc3c2C(=O)N(C2CCC(=O)NC2=O)C3=O)c1)C(=O)N[C@@H](CC1CCCCC1)C(=O)N[C@H](C=O)C[C@@H]1CCNC1=O (some centres unmarked) [MPD2]
- reduction of viral production [2]: 90%
- reduction of viral production [3]: 90%
- CLint scaled [1]: 36.3 ± 2.51 mL/min/kg
- CLint scaled at 1 h, 5 µM [1]: 36.2 mL/min/kg

SMILES: C[C@@H](OC(C)(C)C)[C@H](NC(=O)OCc1cccc(OCCCCCCCCOc2cccc3c2C(=O)N(C2CCC(=O)NC2=O)C3=O)c1)C(=O)N[C@@H](CC1CCCCC1)C(=O)N[C@H](C=O)C[C@@H]1CCNC1=O (some centres unmarked) [MPD3]
- CLint scaled [1]: 24.7 ± 0.5 mL/min/kg

SMILES: C[C@@H](OC(C)(C)C)[C@H](NC(=O)OCc1cccc(OCCCCCCN(C)CCN(C)c2cccc3c2C(=O)N(C2CCC(=O)NC2=O)C3=O)c1)C(=O)N[C@@H](CC1CCCCC1)C(=O)N[C@H](C=O)C[C@@H]1CCNC1=O (some centres unmarked) [MPD4]
- IC50 [4]: 36 nM

SMILES: C[C@@H](OC(C)(C)C)[C@H](NC(=O)OCc1cn(CCOCCOCCOCCC(=O)Nc2cccc3c2C(=O)N(C2CCC(=O)NC2=O)C3=O)nn1)C(=O)N[C@@H](CC1CCCCC1)C(=O)N[C@H](C=O)C[C@@H]1CCNC1=O (some centres unmarked) [MPD5]
- IC50 [4]: 36 nM

SMILES: C[C@@H](OC(C)(C)C)[C@H](NC(=O)OCc1cn(CCOCCOCCOCCC(=O)N(C)CCN(C)c2cccc3c2C(=O)N(C2CCC(=O)NC2=O)C3=O)nn1)C(=O)N[C@@H](CC1CCCCC1)C(=O)N[C@H](C=O)C[C@@H]1CCNC1=O (some centres unmarked) [MPD6]
- IC50 [4]: 111 nM

SMILES: CC(C)(COCCCCCCOc1cccc2c1C(=O)N(C1CCC(=O)NC1=O)C2=O)NC(=O)N[C@H](C(=O)N1C[C@H]2[C@@H]([C@H]1C(=O)N[C@H](C=O)C[C@@H]1CCNC1=O)C2(C)C)C(C)(C)C (some centres unmarked) [MPD7]
- IC50 [4]: 35 nM

SMILES: CC(C)(CCOCCCCCCOc1cccc2c1C(=O)N(C1CCC(=O)NC1=O)C2=O)NC(=O)N[C@H](C(=O)N1C[C@H]2[C@@H]([C@H]1C(=O)N[C@H](C=O)C[C@@H]1CCNC1=O)C2(C)C)C(C)(C)C (some centres unmarked) [MPD8]
- IC50 [4]: 24 nM

SMILES: CN(CCN(C)c1cccc2c1C(=O)N(C1CCC(=O)NC1=O)C2=O)C(=O)CCC(C)(C)NC(=O)N[C@H](C(=O)N1C[C@H]2[C@@H]([C@H]1C(=O)N[C@H](C=O)C[C@@H]1CCNC1=O)C2(C)C)C(C)(C)C (some centres unmarked) [MPD9]
- IC50 [4]: 31 nM

SMILES: CC(C)(CCC(=O)NCCCC(=O)Nc1cccc2c1C(=O)N(C1CCC(=O)NC1=O)C2=O)NC(=O)N[C@H](C(=O)N1C[C@H]2[C@@H]([C@H]1C(=O)N[C@H](C=O)C[C@@H]1CCNC1=O)C2(C)C)C(C)(C)C (some centres unmarked) [MPD10]
- IC50 [4]: 149 nM

SMILES: C[C@@H](OC(C)(C)C)[C@H](NC(=O)OCc1ccccc1)C(=O)N[C@@H](CC1CCCCC1)C(=O)N[C@H](C=O)C[C@@H]1CCNC1=O [MPI8, reference compound]
- CC50 at 48 h [5]: 70000 nM
